# Measurements: paper PMC9879991, “Biomolecular condensates formed by designer minimalistic peptides” (Nature Communications, 2023)
# Read-outs that look alike come from different tables or passages of the source. No end group written: not given here.
# What was measured:
# [1] = Turbidity analysis of WGR-1 with and without 0.5% FITC-labeled peptide; assay type: physicochemical; conditions: Tris buffer pH 8, 0.2 M NaCl, mean of n=3
# [2] = Encapsulation efficiency of peptide droplets, fluorescein payload; assay type: physicochemical; conditions: C initial 10 µM, 20 mM peptide; for %EE: 20 mM Tris + 0.2 M NaCl pH 8, 15,000 g 10 min, supernatant absorbance 490 nm
# Excerpt: Next, we studied how peptide composition affects the encapsulation efficiency of the droplets by using GFP, rhodamine B, and fluorescein as fluorescent payload model systems (Fig. 4). We analyzed the encapsulation efficiency of the fluorescent payloads by using both confocal microscopy and absorbance measurements of the payloads in the dilute vs. the condensed phase (Fig. 4a–c). […] WGR-1 has the highest EE of fluorescein. In addition to π-π interactions, WGR-1 might form hydrogen bonding with the hydroxyl groups or electrostatic interactions with the deprotonated carboxylic acid of the dye.
# Stock solutions (1 mM) of the fluorescein and rhodamine B dye molecules were prepared in 20 mM Tris buffer. Coacervate solutions of 20 mM peptide were prepared in 20 mM Tris + 0.2 M NaCl at pH 8. From these, a volume of 148.5 µl was mixed with 1.5 µl of dye solution in a 1.5 ml Eppendorf tube and pipetted. After 10 min the samples were centrifuged at 15,000 × g for 10 min. A volume of 120 μl from the supernatant was collected and vortexed and then the absorbance of 35 μl triplicates was measured (at λ = 490 nm for fluorescein and λ = 555 nm for RhB) in a 384 well black plate by Biotek H1 synergy plate reader (purchased from Lumitron, Israel). For GFP, a 7.5 µl of 20 mM Tris buffer to a 7.5 μl GFP aliquot from the purchased stock solution. The 15 µl of GFP solution was added to 135 µl of peptide solution and was mixed in a 1.5 ml Eppendorf tube and pipetted. The concentration of GFP at the supernatant was measured via fluorescence. All experiments were performed in triplicate. The concentration of the supernatant solutions determinate by calibration curves. Imaging was made to 30 μl of uncentrifuged samples. Efficiency of encapsulation (%EE) was calculated using Eq. 2. 2 %EE=CT−Csup/CT
# [3] = solution NMR, S.D. in next row
# Excerpt: Source data are provided as a Source Data file.
# (1 picture or pasted object on this page, not shown here)
# [4] = assay type: physicochemical; conditions: for Apparent diffusion coefficient D, condensed phase (FRAP) / t1/2 of the FRAP recovery: 20 mM peptide, 0.5% FITC-labeled, tris pH 8, 0.2 M NaCl
# Protocol: Next, we studied whether the peptide sequence affects the material properties of the resulting liquid droplets. For this, we performed FRAP analysis using laser scanning confocal microscopy of 0.5% FITC-labeled peptides. […] The apparent diffusion coefficient for each peptide was calculated as1 Dapp=r^2/t where t is the recovery time. The calculated apparent diffusion coefficients of the peptides were in the 1.7–5.5*10^−14 m^2 s^−1 range (Supplementary Table 1).
# Fig. 3 Strength of intermolecular interactions affects peptide droplet dynamics. a–c FRAP analysis of WGR-1, WGR-3, WGR-4, and WGR-5, performed using laser scanning confocal microscopy at 20 mM in Tris buffer at pH 8 with 0.2 M NaCl using 0.5% FITC-labeled peptides. a Representative confocal microscopy images of FRAP for individual droplets. Scale bars = 5 μm. FRAP recovery plots (b), apparent diffusion coefficient (c), and t1/2 of the recovery (d). Data are presented as mean values +/− SD, n = 5 (WGR-1), 4 (WGR-3, WGR-4), and 5 (WGR-5). Source data are provided as a Source Data file.
# FRAP experiments were performed by a Zeiss Zen 900 confocal microscope with ×20/0.8 NA Plan- Apochromat air objective. For each of the peptides, out of a total peptide concentration of 20 mM we used 0.5% FITC-labeled peptide, in tris buffer pH 8 with 0.2 M NaCl. A circular area with radius of 2.5 μm was bleached with a 488 nm laser 100% intensity at 10 iterations; subsequent recovery of the bleached area was recorded with a 488 nm laser. Monitoring of fluorescence recovery in the condensates was analyzed using Zen Blue 3.2 software (Zeiss). Photobleaching correction and recovery time were calculated using OriginLab 9.95. The final FRAP recovery curve is the average of recovery curves collected from n = 4–6 separate droplets.
# [5] = FRAP of WGR-1 droplets, replicate 1
sequence,measurement,setting,value
WGRGRGRGWPGVGY [WGR-1],Turbidity as asorbance at 350 nm,[1]; peptide concentration 10 (mM),0.3393
same,Turbidity as asorbance at 350 nm,[1]; peptide concentration 20 (mM),2.135
same,%EE,"[2]; replicate 1, given as fraction",0.888
same,%EE,"[2]; replicate 2, given as fraction",0.8098
same,%EE,"[2]; replicate 3, given as fraction",0.7632
same,Encapsulation efficiency (EE),"[2]; 20 mM Tris + 0.2 M NaCl pH 8, supernatant absorbance 490 nm, mean of n=3, in percent",82.0333%
same,"D dilute phase (NMR), apparent diffusion coefficient",[3],1.91E-10 m^2/sec
same,"Apparent diffusion coefficient D, condensed phase (FRAP)","[4]; Dapp=r^2/t, mean of n=4-5 droplets",4.58E-14 m^2 s^-1
same,"Apparent diffusion coefficient D, condensed phase (FRAP)","[4]; bleached radius 2.5 μm, droplet 1",4.047e-14 m^2 s^-1
same,t1/2 of the FRAP recovery,[4]; droplet 1,37.1535
same,t1/2 of the FRAP recovery,[4]; droplet 2,29.5706
same,t1/2 of the FRAP recovery,[4]; droplet 3,25.8937
same,t1/2 of the FRAP recovery,[4]; droplet 4,27.3852
same,t1/2 of the FRAP recovery,[4]; droplet 5,32.7563
same,x=t at y=0.5a (t1/2 of FRAP recovery),"[4]; FRAP of WGR-1 droplets, from fit, mean of 5 droplets (stdev 4.50361)",30.5519 s
same,x=t at y=0.95a (time to 95% of plateau recovery),"[4]; FRAP of WGR-1 droplets, from fit, mean of 5 droplets (stdev 17.8362)",138.34 s
same,x=t at y=0.5a (t1/2 of FRAP recovery),"[4]; FRAP of WGR-1 droplets, from fit, replicate 1",37.1535 s
same,x=t at y=0.5a (t1/2 of FRAP recovery),"[4]; FRAP of WGR-1 droplets, from fit, replicate 2",29.5706 s
same,x=t at y=0.5a (t1/2 of FRAP recovery),"[4]; FRAP of WGR-1 droplets, from fit, replicate 3",25.8937 s
same,x=t at y=0.5a (t1/2 of FRAP recovery),"[4]; FRAP of WGR-1 droplets, from fit, replicate 4",27.3852 s
same,x=t at y=0.5a (t1/2 of FRAP recovery),"[4]; FRAP of WGR-1 droplets, from fit, replicate 5",32.7563 s
same,%recovery (mean of fitted plateau a of the FRAP recovery curves),"[4]; FRAP of WGR-1 droplets, normalized intensity fitted with parameters a, b, c, mean of 5 droplets (stdev 7.03086)",78.6308%
same,"D (apparent diffusion coefficient from FRAP), average","[4]; FRAP of WGR-1 droplets, average of 5 droplets (stdev 6.05E-15)",4.58E-14 m^2 s^-1
same,D (apparent diffusion coefficient from FRAP),[4]; [5],4.05E-14 m^2 s^-1
same,a (fitted plateau of normalized FRAP recovery),[4]; [5],68.4582
same,"D condensed phase (FRAP), apparent diffusion coefficient","[4]; condensed phase, FRAP, mean, S.D. in next row",4.52E-14 m^2/sec
